Data: patent US9353091B2 (priority 2009, dated 2016)

Tests used:
[1] = biological target: T1, HCV polymerase 1A (Δ21 NS5B) (Hepatitis C virus genotype 1a, UniProt P27958); test: HCV Polymerase Inhibition Assay (1a); assay type: biochemical
T1 construct: 20 to 50 nM Δ21 NS5B
Description: (§1) Reaction volume was 50 μL. The reaction was terminated by the addition of 1 volume of 4 mM spermine in 10 mM Tris-Cl pH 8.0, 1 mM EDTA. After incubation for at least 15 minutes at room temperature, the precipitated RNA was captured by filtering through a GF/B filter (Millipore) in a 96 well format. The filter plate was washed three times with 200 μL, each of 2 mM spermine, 10 mM Tris-Cl pH 8.0, 1 mM EDTA, and 2 times with ethanol. After air-drying, 30 μL, of Microscint 20 scintillation cocktail (Packard) was added to each well, and the retained cpm were determined by scintillation counting. […] Retained cpm were plotted vs. inhibitor concentration and fit to equation 1 using non-linear regression (ref. 1) to obtain the IC50 values: Retained cpm=A[sqrt{(IC50+It−Et)^2+4*IC50*Et}−(IC50+It−Et)]
(§2) Ref. Morrison, J. F. and S. R. Stone. 1985. Approaches to the study and analysis of the inhibition of enzymes by slow- and tight-binding inhibitors. Comments Mol. Cell. Biophys. 2: 347-368.
(§3) The sequence of the template RNA used was: 5′-[…] […] […] […] […] […] […] […] […] […] […] […] […] […] […] […] […]-3′ (SEQ ID NO: 1)

[2] = biological target: T2, HCV polymerase 1B (Δ21 NS5B) (Hepatitis C virus genotype 1b, UniProt P26663); test: HCV Polymerase Inhibition Assay (1b); assay type: biochemical
T2 construct: 20 to 50 nM Δ21 NS5B
T2 sequence (P26663 2420-2989, stated change not applied): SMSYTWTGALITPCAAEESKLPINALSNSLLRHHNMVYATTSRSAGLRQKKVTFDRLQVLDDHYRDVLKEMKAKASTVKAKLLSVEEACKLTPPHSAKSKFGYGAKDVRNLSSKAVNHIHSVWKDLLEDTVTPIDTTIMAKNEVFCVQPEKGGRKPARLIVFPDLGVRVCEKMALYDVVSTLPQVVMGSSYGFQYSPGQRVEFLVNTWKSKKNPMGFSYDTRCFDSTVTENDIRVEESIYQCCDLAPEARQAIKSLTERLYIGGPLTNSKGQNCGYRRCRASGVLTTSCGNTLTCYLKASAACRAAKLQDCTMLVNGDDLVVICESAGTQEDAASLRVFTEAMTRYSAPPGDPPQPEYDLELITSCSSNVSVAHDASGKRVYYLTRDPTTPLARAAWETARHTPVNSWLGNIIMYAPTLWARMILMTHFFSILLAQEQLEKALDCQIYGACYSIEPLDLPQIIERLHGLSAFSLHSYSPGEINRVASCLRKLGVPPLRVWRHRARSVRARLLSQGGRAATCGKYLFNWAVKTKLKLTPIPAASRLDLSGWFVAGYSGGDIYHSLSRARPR
Description: as §1, §2, §3

[3] = test system: genotype 1a-H77 subgenomic replicon cell line; test: HCV Polymerase Replicon Assay (genotype 1a-H77, luciferase reporter); assay type: cell-based; details: Hepatitis C virus, 72 h, 1a-H77 replicon, three days
[4] = test system: genotype 1b-Con1 subgenomic replicon cell line; test: HCV Polymerase Replicon Assay (genotype 1b-Con1, luciferase reporter); assay type: cell-based; details: Hepatitis C virus, 72 h, 1b-Con1 replicon, three days

T1 sequence (P27958 2421-2990, stated change not applied): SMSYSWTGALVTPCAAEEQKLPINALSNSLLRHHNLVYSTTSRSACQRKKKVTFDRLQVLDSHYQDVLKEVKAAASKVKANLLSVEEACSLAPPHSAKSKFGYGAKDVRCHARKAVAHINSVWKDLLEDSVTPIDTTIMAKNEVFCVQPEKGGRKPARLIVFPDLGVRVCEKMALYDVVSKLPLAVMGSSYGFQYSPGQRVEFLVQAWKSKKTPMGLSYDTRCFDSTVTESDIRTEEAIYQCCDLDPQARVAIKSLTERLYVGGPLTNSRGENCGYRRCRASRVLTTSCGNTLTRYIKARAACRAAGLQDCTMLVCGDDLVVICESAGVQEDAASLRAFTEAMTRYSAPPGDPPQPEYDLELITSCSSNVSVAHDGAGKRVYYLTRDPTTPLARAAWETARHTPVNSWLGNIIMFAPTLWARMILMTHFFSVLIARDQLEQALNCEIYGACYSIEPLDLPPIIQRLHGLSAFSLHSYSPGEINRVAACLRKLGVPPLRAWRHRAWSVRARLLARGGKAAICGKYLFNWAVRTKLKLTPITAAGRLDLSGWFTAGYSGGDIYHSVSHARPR

SMILES | IC50 [1] | IC50 [2] | EC50 [3] | EC50 [4]
COc1c(-c2c[nH]c(=O)[nH]c2=O)cc(-c2ccc3cc(NS(C)(=O)=O)ccc3c2)cc1C(C)(C)C [compound 1, N-(6-(3-tert-butyl-5-(2,4-dioxo-1,2,3,4-tetrahydropyrimidin-5-yl)-4-methoxyphenyl)naphthalen-2-yl)methanesulfonamide] | 100 to 1000 nM | 100 to 1000 nM |  | 
COc1c(-c2ccc3cc(NS(C)(=O)=O)ccc3c2)cc(-c2ccc[nH]c2=O)cc1C(C)(C)C [compound 9, N-(6-(3-tert-butyl-2-methoxy-5-(2-oxo-1,2-dihydropyridin-3-yl)phenyl)naphthalen-2-yl)methanesulfonamide] | < 10 nM | 10 to 100 nM | ≤ 10 nM | ≤ 10 nM
CC(C)(C)c1cc(-c2c[nH]c(=O)[nH]c2=O)cc(-c2ccc3cc(NS(C)(=O)=O)ccc3c2)c1I [compound 34, N-(6-(3-tert-butyl-5-(2,4-dioxo-1,2,3,4-tetrahydropyrimidin-5-yl)-2-iodophenyl)naphthalen-2-yl)methanesulfonamide] | < 10 nM | 10 to 100 nM | 100 to 1000 nM | 10 to 100 nM
COc1c(-c2ccc3cc(NS(C)(=O)=O)ccc3c2)cc(NC(=O)Nc2ccccc2)cc1C(C)(C)C [compound 17, N-(6-(3-tert-butyl-2-methoxy-5-(3-phenylureido)phenyl)naphthalen-2-yl)methanesulfonamide] | > 1000 nM | > 1000 nM |  | 
COc1c(/C=C/c2ccc(NS(C)(=O)=O)cc2)cc(-c2c[nH]c(=O)[nH]c2=O)cc1C(C)(C)C [compound 4, (E)-N-(4-(3-tert-butyl-5-(2,4-dioxo-1,2,3,4-tetrahydropyrimidin-5-yl)-2-methoxystyryl)phenyl)methanesulfonamide] |  |  | ≤ 10 nM | ≤ 10 nM
COc1c(-c2ccc3cc(NS(C)(=O)=O)ccc3c2)cc(C(=O)c2ccccc2)cc1C(C)(C)C [compound 31, N-(6-(5-benzoyl-3-tert-butyl-2-methoxyphenyl)naphthalen-2-yl)methanesulfonamide] | > 1000 nM | > 1000 nM |  | 
COc1c(-c2ccc3cc(NS(C)(=O)=O)ccc3c2)cc(NC(=O)CCN)cc1C(C)(C)C [compound 24, 3-amino-N-(3-tert-butyl-4-methoxy-5-(6-(methylsulfonamido)naphthalen-2-yl)phenyl)propanamide] | > 1000 nM | > 1000 nM |  | 
COc1c(-c2ccc3cc(NS(C)(=O)=O)ccc3c2)cc(NC(=O)CN)cc1C(C)(C)C [compound 20, 2-amino-N-(3-tert-butyl-4-methoxy-5-(6-(methylsulfonamido)naphthalen-2-yl)phenyl)acetamide] | > 1000 nM | > 1000 nM |  | 
COc1c(-c2ccc3cc(NS(C)(=O)=O)ccc3c2)cc(-c2ccc(F)cc2F)cc1C(C)(C)C [compound 11, N-(6-(5-tert-butyl-2′,4′-difluoro-4-methoxybiphenyl-3-yl)naphthalen-2-yl)methanesulfonamide] | > 1000 nM | > 1000 nM |  | > 1000 nM
COc1c(-c2ccc3cc(NS(C)(=O)=O)ccc3c2)cc(NC(=O)NC(C)C)cc1C(C)(C)C [compound 18, N-(6-(3-tert-butyl-5-(3-isopropylureido)-2-methoxyphenyl)naphthalen-2-yl)methanesulfonamide] | > 1000 nM | > 1000 nM |  | 
COc1c(/C=C/c2ccc(NS(C)(=O)=O)cc2)cc(C(=O)c2ccccc2)cc1C(C)(C)C [compound 32, (E)-N-(4-(5-benzoyl-3-tert-butyl-2-methoxystyryl)phenyl)methanesulfonamide] | > 1000 nM | > 1000 nM |  | 
COc1c(-c2ccc3cc(NS(C)(=O)=O)ccc3c2)cc(NC(=O)CNC(=O)OC(C)(C)C)cc1C(C)(C)C [compound 19, tert-butyl 2-(3-tert-butyl-4-methoxy-5-(6-(methylsulfonamido)naphthalen-2-yl)phenylamino)-2-oxoethylcarbamate] | > 1000 nM | > 1000 nM |  | 
